Patent US11679126B2, “Methods to enhance microvascular engraftment of bioengineered and primary tissues” (Children's Medical Center Corporation, priority 2016, dated 2023)

How the values were obtained:
neutrophils [1] = test: Neutrophil recruitment plug assay; format: in vivo, nu/nu mice; details: Matrigel plugs containing CM, day 2
Procedure: Concentrated CM (50 μL) was mixed with 200-μL of Matrigel and injected subcutaneously into nu/nu mice. After 2 days, plugs were explanted and infiltrated cells were retrieved by enzymatic digestion and subjected to flow cytometric analysis. Concentrated basal media (basal-M: EBM-2, 5% FBS) served as control. In indicated experiments, neutralizing antibodies against IL6, CXCL1 or CXCL8 (5 μg/antibody/plug) were added to concentrated CM 30 min prior to implantation. Individual neutralizing antibodies and the combination of three were compared.

CXCL1, CXCL8, and IL6 = test: Human cytokine protein array of conditioned media from A-Grafts; format: cell-based; details: A-Grafts exposed for 24 h
Procedure: (§1) Photopolymerizable methacrylated gelatin (GelMA) hydrogel was synthesized as previously described (Chen, et al. Adv. Funct. Mater. 22: 2027-2039 (2012)). GelMA prepolymer solution was prepared in PBS at 80° C. (5 w/v % final) with photoinitiator Irgacure 2959 (0.5 w/v %; CIBA Chemicals), and then allowed to cool down to 37° C. in a water bath. ECFCs and MSCs (4×10^5 total; 1:1 ratio) were suspended in 200 μL of GelMA solution and the mixture was polymerized by exposure to 7.5 mW/cm^2 UV light for 15 s at 37° C. Polymerized cell-laden constructs were referred to as unassembled grafts or U-Grafts. Alternatively, on indicated experiments, U-Grafts were constructed with ice-cold Phenol Red-free Matrigel (BD Bioscience). Assembled grafts or A-Grafts were constructed by culturing U-Grafts in vitro for 7 days using EGM2 with […]. A-Grafts contained easily observable, fully-assembled vascular networks. Both, U-Grafts and A-Grafts were subcutaneously implanted into back of 6-week-old male athymic nu/nu mice for engraftment studies. On specified experiments, DsRed-labeled ECFCs were used to visualize the formation of assembled vascular networks in A-Grafts. […]
The presence of selected cytokines was evaluated in samples of CM with human cytokine protein arrays (R&D Systems Inc.) according to the manufacturer's instructions. […]

neutrophils [2] = test: Neutrophil recruitment into implanted A-Grafts at day 2 (flow cytometry); format: in vivo, nude mice
Procedure: (§2) Photopolymerizable methacrylated gelatin (GelMA) hydrogel was synthesized as previously described (Chen, et al. Adv. Funct. Mater. 22: 2027-2039 (2012)). GelMA prepolymer solution was prepared in PBS at 80° C. (5 w/v % final) with photoinitiator Irgacure 2959 (0.5 w/v %; CIBA Chemicals), and then allowed to cool down to 37° C. in a water bath. ECFCs and MSCs (4×10^5 total; 1:1 ratio) were suspended in 200 μL of GelMA solution and the mixture was polymerized by exposure to 7.5 mW/cm^2 UV light for 15 s at 37° C. Polymerized cell-laden constructs were referred to as unassembled grafts or U-Grafts. Alternatively, on indicated experiments, U-Grafts were constructed with ice-cold Phenol Red-free Matrigel (BD Bioscience). […]
(§3) Grafts were removed from euthanized mice and cells were retrieved by enzymatic (1 mg/mL collagenase and 2.5 U/mL dispase) digestion for 1 h at 37° C. […] Retrieved cells were also stained for flow cytometry and analyzed using a Guava easyCyte 6HT/2L flow cytometer (Millipore Corporation, Billerica, Mass.) and FlowJo software (Tree Star Inc., Ashland, Oreg.). […] In indicated experiments, retrieved cells were sorted into mCD45+/mLy6G+(neutrophils) and mCD45+/mLy6G−cells by fluorescence-activated cell sorting (FACS) using a FACSAria II 5-LASER sorter system (BD Bioscience). Sorted cells were analyzed immediately for gene expression by qPCR. […]

[3] = tested on: A-Grafts (assembled human vascular networks); test: A-Graft revascularization after implantation into nude mice; format: in vivo
Procedure: as §2
(§4) Microvessel density was reported as the average number of erythrocyte-filled vessels (vessels/mm^2) in H&E-stained sections from the middle of the implants as previously described (Melero-Martin, et al. Circ. Res. 103:194-202 (2008)). The entire area of each section was analyzed. On specified experiments, human-specific microvessel density was quantified by evaluation of slides immunostained for human-specific CD31 (h-CD31). Perfused microvessel density was measured by injection of FITC-labeled lectins (UEA-1 or Iso-B4) before euthanizing graft-bearing mice, followed by staining of lectin-labeled vessels with anti-UEA-1 or anti-FITC antibodies. […]

[4] = tested on: m-Islets endogenous gfp+ microvessels; test: Vascular sprouting of m-Islets embedded in hydrogel in vitro; format: cell-based, mouse; details: 7 days in vitro
From the text: In order to develop an interface for the engraftment of islets, we embedded isolated m-Islets in our hydrogel in the presence or absence of DAPT (a γ-secretase inhibitor) and examined the effect on the vasculature of islets for 7 days. […] This is consistent with previous data in which transiently blocking Notch enhanced the revascularization potential of A-grafts (FIG. 14) (52). We also examined the effect of unassembled DsRed-ECFCs (FIG. 19B). […] Moreover, the newly formed ECFC-lined vessels (DsRed+) interacted with the gfp+ vasculature of the m-Islets, and this interconnectivity was enhanced in the presence of DAPT (FIG. 19B).

CXCR2 = molecular target: T1, CXCR2 (Homo sapiens, UniProt P25025); details: in vitro and in vivo, previous studies; cited from earlier work
T1 sequence (P25025 1-360): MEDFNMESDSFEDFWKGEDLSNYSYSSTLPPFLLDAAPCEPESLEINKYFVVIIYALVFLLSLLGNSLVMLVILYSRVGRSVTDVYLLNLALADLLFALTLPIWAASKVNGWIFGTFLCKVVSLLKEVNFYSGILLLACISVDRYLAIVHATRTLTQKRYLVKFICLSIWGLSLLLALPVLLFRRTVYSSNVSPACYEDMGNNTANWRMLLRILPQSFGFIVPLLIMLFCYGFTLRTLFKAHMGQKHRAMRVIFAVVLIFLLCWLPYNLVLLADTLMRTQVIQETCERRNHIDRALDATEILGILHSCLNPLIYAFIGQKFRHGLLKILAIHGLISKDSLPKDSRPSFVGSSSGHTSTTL

neutrophils [5] = test: Neutrophil recruitment into implanted U-Grafts at day 2 (flow cytometry); format: in vivo, nude mice; details: 7.5 mg/kg intraperitoneally daily
Procedure: as §2, §3

[6] = tested on: U-Grafts (human ECFCs + MSCs); test: U-Graft vascularization after subcutaneous implantation into treated nude mice; format: in vivo; design: number of perfused vessels at day 7 in U-grafts: dose or concentration left out as unconfirmed; details: for U-Graft vascularization / microvessel density compared with control: U-Grafts in treated mice, day 7
Procedure: as §1, §4
[…] Neutrophil recruitment at day 2 and graft vascularization at day 7 were measured as described before. […]

Structure (SMILES)	neutrophil recruitment into subcutaneous plugs (neutrophils [1])	expression of cytokines in conditioned media of A-Grafts (CXCL1, CXCL8, and IL6)	neutrophils in A-Grafts compared with control (neutrophils [2])	perivascular coverage (α-SMA+ cells) of human vessels in A-Grafts ([3]; day 7, A-Grafts treated 24 h before implantation)	perfused microvessel networks in A-Grafts ([3]; day 7 in vivo, compared with untreated / basal-M A-Grafts)	sprouting activity of endogenous gfp+ microvessels (number and length of sprouts) ([4]; m-Islets in hydrogel, vs untreated islets)	interconnectivity between ECFC-lined vessels (DsRed+) and m-Islets vasculature (gfp+) ([4]; m-Islets with unassembled DsRed-ECFCs in hydrogel)	neutrophil chemotaxis in response to CXCL8 (CXCR2)	neutrophil presence in implanted U-Grafts (neutrophils [5])	U-Graft vascularization / microvessel density compared with control [6]	number of perfused vessels at day 7 in U-grafts ([6]; mice treated daily, intraperitoneal)
C[C@H](NC(=O)Cc1cc(F)cc(F)c1)C(=O)N[C@H](C(=O)OC(C)(C)C)c1ccccc1 [DAPT, N—[N-(3,5-Difluorophenylacetyl-L-alanyl)]-S-phenylglycine t-Butyl ester]	recruited significantly more neutrophils	reactivated the expression of several cytokines	significantly more	did not compromise proper perivascular coverage	more extensive networks of perfused microvessels	significantly higher	enhanced	–	–	–	–
O=C(Nc1ccc([N+](=O)[O-])cc1O)Nc1ccccc1Br [SB225002]	–	–	–	–	–	–	–	effectively inhibits	significantly impaired	significantly lower	–
NC(=O)c1ccc(-c2nc(-c3ccccn3)c(-c3ccc4c(c3)OCO4)[nH]2)cc1 [SB432542]	–	–	–	–	–	–	–	–	–	completely abrogated	insignificant
